Source: PMC4100783 (Biochemistry, 2014)
“And” between values parts separate entries of the source, which are not always exact repeats. Equal values may be shown once.

Columns and labels:
mftR [1] = conditions: cited from earlier work
mftR [2] = assay type: binding, Burkholderia thailandensis
MftR-mftrO complex = assay type: biochemical, Burkholderia thailandensis
MftR-mftpO complex = assay type: biochemical, Burkholderia thailandensis
MftR W11F = assay type: binding, Burkholderia thailandensis
MftR D56S = assay type: binding, Burkholderia thailandensis
mftR [3] = assay type: binding, Burkholderia thailandensis; conditions: read-out: K
MftR WT = molecular target: T1, MftR WT (Burkholderia thailandensis E264, UniProt Q2SVY7 1-164); experiment: EMSA
T1 sequence: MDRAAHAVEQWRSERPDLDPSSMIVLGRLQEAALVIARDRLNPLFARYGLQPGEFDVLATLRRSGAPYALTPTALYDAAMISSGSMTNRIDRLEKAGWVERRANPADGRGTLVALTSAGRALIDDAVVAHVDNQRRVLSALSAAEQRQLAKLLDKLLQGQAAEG

O=c1[nH]cnc2nc[nH]c12 [hypoxanthine]
effect on DNA binding by MftR (mftR [1]): inhibit DNA binding, albeit less efficiently than urate

O=c1[nH]c(=O)c2[nH]c(=O)[nH]c2[nH]1 [urate]
Tm of MftR (mftR [2]): 61.3 ± 1.0 °C | Tm of MftR D1 (mftR [2]): 49.2 ± 0.2 °C | Tm of MftR D2 (mftR [2]): 58.0 ± 0.1 °C | IC50 (MftR-mftrO complex): 3700 ± 300 µM | IC50 (MftR-mftpO complex): 2200 µM | Tm of W11F (MftR W11F): 27.0 ± 0.1 °C and 28.8 ± 0.7 °C | increase of Tm compared to protein alone (MftR W11F): ~4 °C | Tm of D56S (MftR D56S): 52.3 ± 0.3 °C and 51.3 ± 0.1 °C | Kd (mftR [3]): 6.1 ± 2.1 µM

O=c1[nH]c(=O)c2nc[nH]c2[nH]1 [xanthine]
effect on DNA binding by MftR (mftR [1]): inhibit DNA binding, albeit less efficiently than urate

B1: mftpO (dsDNA)
DNA 1: TGTCGAATCTATCTTGATGTCGAGACAATTATACGC
DNA 2: GCGTATAATTGTCTCGACATCAAGATAGATTCGACA
Kd (MftR WT): 0.0006 ± 0.0001 µM

B2: mftrO (dsDNA)
DNA 1: CGTCCAAGTTATCTTGACGTAGAGACATGTCGAATC
DNA 2: GATTCGACATGTCTCTACGTCAAGATAACTTGGACG
Kd (MftR WT): 0.0007 ± 0.0001 µM
